Assay results: patent US10233156B2, “9-membered fused ring derivative” (Shionogi & Co., Ltd., priority 2015, dated 2019)

Legend:
[1] = biological target: recombinant human ACC2 (Homo sapiens (Human), UniProt O00763); assay: Measurement of inhibitory activity on human ACC2 (MALDI-TOF MS, conversion of acetyl CoA to malonyl CoA); type: biochemical; conditions: recombinant human ACC2, room temperature, 1 to 3 hours
Excerpt: After a cDNA encoding human ACC2 (27 amino acid residue to 2458 amino acid residues from the N-terminus) was cloned from human kidney cDNA library (Clontech), human ACC2 gene containing His-tag sequence at 5′ terminus was inserted into pFastBac1 (Invitrogen). Recombinant baculovirus was generated using Bac-to-Bac baculovirus expression system (Invitrogen) according to the manufacturer's protocol. To express human ACC2, Sf-9 cells were infected with recombinant baculovirus. After infected cells were disrupted, the filtrated lysate was subjected to Ni-affinity chromatography and anion-exchange chromatography. The fractions containing human ACC2 protein were pooled as recombinant human ACC2 solution.
(§1) Recombinant human ACC1 and recombinant human ACC2, which were prepared by the method mentioned above, were preincubated with assay buffer solution (50 mM HEPES-KOH (pH 7.4), 10 mM magnesium chloride, 6-10 mM potassium citrate, 4 mM reduced form of glutathione, 1.5 mg/ml bovine serum albumin) for one hour. Then, 0.2 μL of each this invention compound solution (in DMSO) were dispensed to 384-well microplate, 5 μL of the preincubated enzyme solution and 5 μL of substrate solution (50 mM HEPES-KOH (pH 7.4), 1 mM ATP, 0.8 mM acetyl CoA and 25-50 mM potassium bicarbonate) were added to microplate. After centrifugation and shaking, the reaction mixtures were incubated in a humidified box at room temperature for 1 to 3 hours. After the incubation, the enzyme reactions were stopped by the addition of EDTA. Then, after the samples were cocrystallized with CHCA (α-cyano-4-hydroxy cinnamic acid) matrices on MALDI target plate, by using the matrix assist laser […] time-of-flight mass spectrometer (MALDI-TOF MS), samples were measured in reflector negative mode. Deprotonated ions of acetyl CoA (AcCoA) of substrate and malonyl CoA (MalCoA) of the reaction product were detected, then, the conversion rates of acetyl CoA to malonyl CoA was calculated by the intensity of [MalCoA-H]−/(Intensity of [MalCoA-H].+Intensity of [AcCoA-H]—) using each signal strength. […] In addition, potassium citrate concentrations in assay buffer solution, potassium hydrogen carbonate concentrations in substrate solution and incubation time were adjusted by each lot of enzyme.

[2] = biological target: recombinant human ACC1 (Homo sapiens (Human), UniProt Q13085); assay: Measurement of inhibitory activity on human ACC1 (MALDI-TOF MS, conversion of acetyl CoA to malonyl CoA); type: biochemical; conditions: recombinant human ACC1, room temperature, 1 to 3 hours
Excerpt: After a cDNA encoding human ACC1 (1 amino acid residue to 2346 amino acid residues from the N-terminus) was cloned from human liver cDNA library (BioChain), human ACC1 gene containing myc-tag and His-tag sequence at 3′ terminus was inserted into pIEXBAC3 (Novagen). Recombinant baculovirus was generated using FlashBACGOLD system (Oxford Expression Technologies) according to the manufacturer's protocol. To express human ACC1, Sf-9 cells were infected with recombinant baculovirus. After infected cells were disrupted, the filtrated lysate was subjected to Ni-affinity chromatography and anion-exchange chromatography. The fractions containing human ACC1 protein were pooled as recombinant human ACC1 solution.
as §1

recombinant human ACC2, sequence (O00763 27-2458): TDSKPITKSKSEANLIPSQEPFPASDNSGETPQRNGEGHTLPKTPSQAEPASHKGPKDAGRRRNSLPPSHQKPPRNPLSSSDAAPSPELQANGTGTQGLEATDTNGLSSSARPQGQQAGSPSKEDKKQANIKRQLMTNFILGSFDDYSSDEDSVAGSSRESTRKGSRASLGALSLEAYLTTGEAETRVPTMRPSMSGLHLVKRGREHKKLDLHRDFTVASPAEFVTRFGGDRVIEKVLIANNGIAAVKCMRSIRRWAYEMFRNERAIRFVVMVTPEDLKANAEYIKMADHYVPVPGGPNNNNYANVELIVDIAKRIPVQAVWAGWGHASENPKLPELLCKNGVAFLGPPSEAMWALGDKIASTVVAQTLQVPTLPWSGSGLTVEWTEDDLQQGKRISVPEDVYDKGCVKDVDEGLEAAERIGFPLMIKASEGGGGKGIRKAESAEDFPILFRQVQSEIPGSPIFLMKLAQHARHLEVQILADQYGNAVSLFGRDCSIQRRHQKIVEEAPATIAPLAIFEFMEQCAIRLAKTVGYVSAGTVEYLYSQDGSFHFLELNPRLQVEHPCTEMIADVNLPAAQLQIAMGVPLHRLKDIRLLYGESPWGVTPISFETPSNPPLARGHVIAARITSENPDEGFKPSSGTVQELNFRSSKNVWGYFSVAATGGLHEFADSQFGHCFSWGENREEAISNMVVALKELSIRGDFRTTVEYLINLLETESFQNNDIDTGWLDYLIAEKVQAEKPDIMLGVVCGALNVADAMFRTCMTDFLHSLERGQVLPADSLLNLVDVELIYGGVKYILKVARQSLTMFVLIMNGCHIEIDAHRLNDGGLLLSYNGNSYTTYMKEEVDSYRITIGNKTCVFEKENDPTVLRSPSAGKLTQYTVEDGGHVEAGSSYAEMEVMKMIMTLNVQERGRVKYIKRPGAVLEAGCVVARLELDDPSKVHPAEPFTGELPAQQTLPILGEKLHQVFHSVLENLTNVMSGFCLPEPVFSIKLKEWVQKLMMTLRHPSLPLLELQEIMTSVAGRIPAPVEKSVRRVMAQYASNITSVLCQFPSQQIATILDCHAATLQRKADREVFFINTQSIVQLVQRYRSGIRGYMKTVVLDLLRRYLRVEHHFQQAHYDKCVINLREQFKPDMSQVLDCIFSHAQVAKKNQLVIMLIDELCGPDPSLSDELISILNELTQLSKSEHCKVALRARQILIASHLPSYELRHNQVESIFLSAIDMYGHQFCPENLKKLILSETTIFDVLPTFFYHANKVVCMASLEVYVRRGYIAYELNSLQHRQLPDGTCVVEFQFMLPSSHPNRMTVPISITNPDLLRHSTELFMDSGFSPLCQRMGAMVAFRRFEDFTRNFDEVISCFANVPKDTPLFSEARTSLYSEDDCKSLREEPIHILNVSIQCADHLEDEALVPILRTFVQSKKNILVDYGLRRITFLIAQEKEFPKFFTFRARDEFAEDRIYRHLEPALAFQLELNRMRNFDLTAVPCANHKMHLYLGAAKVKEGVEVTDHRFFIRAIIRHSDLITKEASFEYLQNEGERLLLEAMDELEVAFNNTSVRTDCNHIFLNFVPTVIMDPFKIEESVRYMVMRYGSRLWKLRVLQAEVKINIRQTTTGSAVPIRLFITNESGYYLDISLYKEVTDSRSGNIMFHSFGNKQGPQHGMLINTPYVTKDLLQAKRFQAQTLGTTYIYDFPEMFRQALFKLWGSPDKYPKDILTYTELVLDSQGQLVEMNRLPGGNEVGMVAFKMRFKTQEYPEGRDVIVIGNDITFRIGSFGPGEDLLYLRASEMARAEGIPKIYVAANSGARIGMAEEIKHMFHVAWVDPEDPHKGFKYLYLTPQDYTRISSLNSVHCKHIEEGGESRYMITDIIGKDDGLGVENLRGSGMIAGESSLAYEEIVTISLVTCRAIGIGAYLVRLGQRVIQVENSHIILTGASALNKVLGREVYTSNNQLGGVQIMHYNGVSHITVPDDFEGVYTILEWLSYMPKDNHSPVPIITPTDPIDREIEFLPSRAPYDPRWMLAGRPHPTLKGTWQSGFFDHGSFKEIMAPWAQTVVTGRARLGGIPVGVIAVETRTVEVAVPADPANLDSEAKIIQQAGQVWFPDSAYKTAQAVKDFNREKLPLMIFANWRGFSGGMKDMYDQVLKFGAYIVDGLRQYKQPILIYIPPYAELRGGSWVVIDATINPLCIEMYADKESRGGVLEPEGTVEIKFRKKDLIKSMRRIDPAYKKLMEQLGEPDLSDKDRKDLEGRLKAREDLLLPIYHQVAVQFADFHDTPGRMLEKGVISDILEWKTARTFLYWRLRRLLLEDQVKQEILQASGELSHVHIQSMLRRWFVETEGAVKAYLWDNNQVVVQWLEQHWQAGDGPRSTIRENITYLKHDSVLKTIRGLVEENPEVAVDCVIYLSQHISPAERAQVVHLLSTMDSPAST

## C[C@@H](CO[C@H]1CC[C@H](Oc2nc3c(F)cc(OCC(F)F)c(Cl)c3n2C)CC1)NS(N)(=O)=O [Example I-248]
[1]
  IC50: 160 nM
[2]
  IC50: > 100000 nM
